Results on 24 compounds are retold here after patent US12409171B2, “Pharmaceutically active pyrazolo-pyridone modulators of DCN1/2-mediated cullin neddylation” (UNIVERSITY OF KENTUCKY RESEARCH FOUNDATION, priority 2019, dated 2025).

One may read the EC50 as the concentration giving half of the maximal effect.

The target in the test is DCN1 (Homo sapiens (Human), UniProt Q96GG9). Nature of the test: TR-FRET binding assay (biotin-DCN1 / Ac-UBE2M12-AlexaFluor488). The settings on record: mean ± SD (n); read-out: DCN1_TRFRET Mean EC50. A digest of the protocol: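 Biotinylated DCN1 binding to Ac-UBE2M12-AlexaFluor488 read by TR-FRET; assay cocktail pre-incubated 1 h at room temperature before compounds added from DMSO stocks by pin transfer. IC50 is the mean of three replicates ± SD; compounds tested in triplicate or more.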
DCN1, sequence (Q96GG9 whole entry): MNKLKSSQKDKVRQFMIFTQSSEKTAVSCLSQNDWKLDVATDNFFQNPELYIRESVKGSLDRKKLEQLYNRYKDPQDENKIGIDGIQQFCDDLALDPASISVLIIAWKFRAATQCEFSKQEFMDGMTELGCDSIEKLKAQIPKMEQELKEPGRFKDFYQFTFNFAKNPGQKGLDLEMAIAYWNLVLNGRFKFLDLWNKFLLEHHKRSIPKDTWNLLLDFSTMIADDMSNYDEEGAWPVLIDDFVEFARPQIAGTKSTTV
Background: TR-FRET usually uses a lanthanide donor and a delayed reading to cut background.
In the case of `CCN1C(=O)[C@@H](NC(=O)c2cccc(C(F)(F)F)c2)[C@@H](c2ccc(F)c(OC)c2)c2c(C)nn(-c3ccccc3)c21` [RG-0013996, N-[(4S,5S)-7-ethyl-4-(4-fluoro-3-methoxyphenyl)-3-methyl-6-oxo-1-phenyl-1H,4H,5H,6H,7H-pyrazolo[3,4-b]pyridin-5-yl]-3-(trifluoromethyl)benzamide], the EC50 was determined as 1270 ± 47 nM. Regarding `CCN1C(=O)[C@@H](NC(=O)c2cccc(C(F)(F)F)c2)[C@@H](c2ccc(C)s2)c2c(C)nn(-c3ccccc3)c21` [RG-0014004, N-[(4S,5S)-7-ethyl-3-methyl-4-(5-methylthiophen-2-yl)-6-oxo-1-phenyl-1H,4H,5H,6H,7H-pyrazolo[3,4-b]pyridin-5-yl]-3-(trifluoromethyl)benzamide], the EC50 was 1410 ± 15.9 nM.

Regarding `CCN1C(=O)[C@@H](NC(=O)c2cccc(C(F)(F)F)c2)[C@@H](c2cncs2)c2c(C)nn(-c3ccccc3)c21` [RG-0014005, N-[(4S,5S)-7-ethyl-3-methyl-6-oxo-1-phenyl-4-(1,3-thiazol-5-yl)-1H,4H,5H,6H,7H-pyrazolo[3,4-b]pyridin-5-yl]-3-(trifluoromethyl)benzamide], the EC50 is 1920 ± 75.2 nM. The same measure for `CCN1C(=O)[C@@H](NC(=O)c2cccc(C(F)(F)F)c2)[C@@H](c2ccc(F)nc2)c2c(CN)nn(-c3ccccc3)c21` [RG-0014006, N-[(4S,5S)-3-(aminomethyl)-7-ethyl-4-(6-fluoropyridin-3-yl)-6-oxo-1-phenyl-1H,4H,5H,6H,7H-pyrazolo[3,4-b]pyridin-5-yl]-3-(trifluoromethyl)benzamide]: 135 ± 7 nM. The figure for `C=CCN1C(=O)[C@@H](NC(=O)c2cccc(C(F)(F)F)c2)[C@@H](c2ccc(F)cc2)c2c(C)nn(-c3ccccc3)c21` [RG-0014007, N-[(4S,5S)-4-(4-fluorophenyl)-3-methyl-6-oxo-1-phenyl-7-(prop-2-en-1-yl)-1H,4H,5H,6H,7H-pyrazolo[3,4-b]pyridin-5-yl]-3-(trifluoromethyl)benzamide] is 1550 ± 157 nM; for `CCN1C(=O)[C@@H](NC(=O)c2cccc(C(F)(F)F)c2)[C@@H](c2ccc(F)cc2)c2c(C)nn(-c3cccc(C)c3)c21` [RG-0014035, N-[(4S,5S)-7-ethyl-4-(4-fluorophenyl)-3-methyl-1-(3-methylphenyl)-6-oxo-1H,4H,5H,6H,7H-pyrazolo[3,4-b]pyridin-5-yl]-3-(trifluoromethyl)benzamide] it is 388 ± 38.5 nM; for `CCN1C(=O)[C@@H](NC(=O)c2cccc(C(F)(F)F)c2)[C@@H](c2ccc(F)cc2)c2c(C)nn(-c3ccc(C)cc3)c21` [RG-0014036, N-[(4S,5S)-7-ethyl-4-(4-fluorophenyl)-3-methyl-1-(4-methylphenyl)-6-oxo-1H,4H,5H,6H,7H-pyrazolo[3,4-b]pyridin-5-yl]-3-(trifluoromethyl)benzamide] it is 3210 ± 156 nM. The figure for `CCOC(=O)Cn1nc(C)c2c1N(CC)C(=O)[C@@H](NC(=O)c1cccc(C(F)(F)F)c1)[C@H]2c1ccc(F)cc1` [RG-0014038, ethyl 2-[(4S,5S)-7-ethyl-4-(4-fluorophenyl)-3-methyl-6-oxo-5-[3-(trifluoromethyl)benzamido]-1H,4H,5H,6H,7H-pyrazolo[3,4-b]pyridin-1-yl]acetate] is 3530 ± 458 nM; for `CCN1C(=O)[C@@H](NC(=O)c2cc(C)cs2)[C@@H](c2ccc(F)cc2)c2c(C)nn(-c3ccccc3)c21` [RG-0014044, N-[(4S,5S)-7-ethyl-4-(4-fluorophenyl)-3-methyl-6-oxo-1-phenyl-1H,4H,5H,6H,7H-pyrazolo[3,4-b]pyridin-5-yl]-4-methylthiophene-2-carboxamide] it is 785 ± 79.6 nM. For `C=CC(=O)NCc1nn(-c2ccccc2)c2c1[C@H](c1ccc(F)cc1)[C@H](NC(=O)c1cccc(C(F)(F)F)c1)C(=O)N2CC` [RG-0014047, N-[(4S,5S)-7-ethyl-4-(4-fluorophenyl)-6-oxo-1-phenyl-3-[(prop-2-enamido)methyl]-1H,4H,5H,6H,7H-pyrazolo[3,4-b]pyridin-5-yl]-3-(trifluoromethyl)benzamide], the EC50 came out at 95.3 ± 4.67 nM. With `CCN1C(=O)[C@@H](NC(=O)c2cccc(C(F)(F)F)c2)[C@@H](c2ccc(F)cc2)c2c(CNC(=O)CC(C)C)nn(-c3ccccc3)c21` [RG-0014052, N-[(4S,5S)-7-ethyl-4-(4-fluorophenyl)-3-[(3-methylbutanamido)methyl]-6-oxo-1-phenyl-1H,4H,5H,6H,7H-pyrazolo[3,4-b]pyridin-5-yl]-3-(trifluoromethyl)benzamide], the EC50 turned out to be 114 ± 8.67 nM. As for `CCN1C(=O)[C@@H](NC(=O)c2cccc(C(F)(F)F)c2)[C@@H](c2ccc(F)cc2)c2c(CN(C)C)nn(-c3ccccc3)c21` [RG-0014053, N-[(4S,5S)-3-[(dimethylamino)methyl]-7-ethyl-4-(4-fluorophenyl)-6-oxo-1-phenyl-1H,4H,5H,6H,7H-pyrazolo[3,4-b]pyridin-5-yl]-3-(trifluoromethyl)benzamide], the EC50 amounted to 90.7 ± 4.38 nM. The figure for `CCN1C(=O)[C@@H](NC(=O)c2cccc(C(F)(F)F)c2)[C@@H](c2ccc(F)cc2)c2c(CNC(=O)OC)nn(-c3ccccc3)c21` [RG-0014054, methyl N-{[(4S,5S)-7-ethyl-4-(4-fluorophenyl)-6-oxo-1-phenyl-5-[3-(trifluoromethyl)benzamido]-1H,4H,5H,6H,7H-pyrazolo[3,4-b]pyridin-3-yl]methyl}carbamate] is 114 ± 4.73 nM; for `CCN1C(=O)[C@@H](NC(=O)c2cccc(C(F)(F)F)c2)[C@@H](c2ccc(F)cc2)c2c(CNC)nn(-c3ccccc3)c21` [RG-0014056, N-[(4S,5S)-7-ethyl-4-(4-fluorophenyl)-3-[(methylamino)methyl]-6-oxo-1-phenyl-1H,4H,5H,6H,7H-pyrazolo[3,4-b]pyridin-5-yl]-3-(trifluoromethyl)benzamide] it is 118 ± 9.03 nM; for `CCN1C(=O)[C@@H](NC(=O)c2cccc(C(F)(F)F)c2)[C@@H](c2ccc(F)cc2)c2c(CN3CCN(C(=O)OC(C)(C)C)CC3)nn(-c3ccccc3)c21` [RG-0014059, tert-butyl 4-{[(4S,5S)-7-ethyl-4-(4-fluorophenyl)-6-oxo-1-phenyl-5-[3-(trifluoromethyl)benzamido]-1H,4H,5H,6H,7H-pyrazolo[3,4-b]pyridin-3-yl]methyl}piperazine-1-carboxylate] it is 231 ± 16.5 nM. As to `CCN1C(=O)[C@@H](NC(=O)c2cccc(C(F)(F)F)n2)[C@@H](c2ccc(F)cc2)c2c(C)nn(-c3ccccc3)c21` [RG-0014061, N-[(4S,5S)-7-ethyl-4-(4-fluorophenyl)-3-methyl-6-oxo-1-phenyl-1H,4H,5H,6H,7H-pyrazolo[3,4-b]pyridin-5-yl]-6-(trifluoromethyl)pyridine-2-carboxamide], the EC50 stood at 1110 ± 130 nM. The figure for `CCN1C(=O)[C@@H](NC(=O)c2ccc(C)s2)[C@@H](c2ccc(F)cc2)c2c(C)nn(-c3ccccc3)c21` [RG-0014062, N-[(4S,5S)-7-ethyl-4-(4-fluorophenyl)-3-methyl-6-oxo-1-phenyl-1H,4H,5H,6H,7H-pyrazolo[3,4-b]pyridin-5-yl]-5-methylthiophene-2-carboxamide] is 2340 ± 77.2 nM; for `CCN1C(=O)[C@@H](NC(=O)C(C)(C)C)[C@@H](c2ccc(F)cc2)c2c(C)nn(-c3ccccc3)c21` [RG-0014063, N-[(4S,5S)-7-ethyl-4-(4-fluorophenyl)-3-methyl-6-oxo-1-phenyl-1H,4H,5H,6H,7H-pyrazolo[3,4-b]pyridin-5-yl]-2,2-dimethylpropanamide] it is > 36500 nM; for `CCN1C(=O)[C@@H](NC(=O)c2cccc(C(F)(F)F)c2)[C@@H](c2ccc(F)cc2)c2c(CNS(C)(=O)=O)nn(-c3ccccc3)c21` [RG-0014140, N-[(4S,5S)-7-ethyl-4-(4-fluorophenyl)-3-(methanesulfonamidomethyl)-6-oxo-1-phenyl-1H,4H,5H,6H,7H-pyrazolo[3,4-b]pyridin-5-yl]-3-(trifluoromethyl)benzamide] it is 94.7 ± 19.7 nM. The figure for `CCN1C(=O)[C@@H](NC(=O)c2cccc(C(F)(F)F)c2)[C@@H](c2ccc(F)cc2)c2c(CN3CCNCC3)nn(-c3ccccc3)c21` [RG-0014141, N-[(4S,5S)-7-ethyl-4-(4-fluorophenyl)-6-oxo-1-phenyl-3-[(piperazin-1-yl)methyl]-1H,4H,5H,6H,7H-pyrazolo[3,4-b]pyridin-5-yl]-3-(trifluoromethyl)benzamide] is 141 ± 7.56 nM; for `CCN1C(=O)[C@@H](NC(=O)c2cccc(C(F)(F)F)c2)[C@@H](c2ccc(F)cc2)c2c(CNCCNC(=O)OC(C)(C)C)nn(-c3ccccc3)c21` [RG-0014142, tert-butyl N-[2-({[(4S,5S)-7-ethyl-4-(4-fluorophenyl)-6-oxo-1-phenyl-5-[3-(trifluoromethyl)benzamido]-1H,4H,5H,6H,7H-pyrazolo[3,4-b]pyridin-3-yl]methyl}amino)ethyl]carbamate] it is 116 ± 17.5 nM. The figure for `CCN1C(=O)[C@@H](NC(=O)c2cccc(C(F)(F)F)c2)[C@@H](c2ccc(F)cc2)c2c(CN3CCC(C)CC3)nn(-c3ccccc3)c21` [RG-0014143, N-[(4S,5S)-7-ethyl-4-(4-fluorophenyl)-3-[(4-methylpiperidin-1-yl)methyl]-6-oxo-1-phenyl-1H,4H,5H,6H,7H-pyrazolo[3,4-b]pyridin-5-yl]-3-(trifluoromethyl)benzamide] is 82.7 ± 7.69 nM; for `CCN1C(=O)[C@@H](NC(=O)c2cccc(C(F)(F)F)c2)[C@@H](c2ccc(F)cc2)c2c(CBr)nn(-c3ccccc3)c21` [RG-0014144, N-[(4S,5S)-3-(bromomethyl)-7-ethyl-4-(4-fluorophenyl)-6-oxo-1-phenyl-1H,4H,5H,6H,7H-pyrazolo[3,4-b]pyridin-5-yl]-3-(trifluoromethyl)benzamide] it is 186 ± 32.6 nM; for `CCN1C(=O)[C@@H](NC(=O)c2cccc(C(F)(F)F)c2)[C@@H](c2ccc(F)cc2)c2c(CNCC(F)(F)F)nn(-c3ccccc3)c21` [RG-0014145, N-[(4S,5S)-7-ethyl-4-(4-fluorophenyl)-6-oxo-1-phenyl-3-{[(2,2,2-trifluoroethyl)amino]methyl}-1H,4H,5H,6H,7H-pyrazolo[3,4-b]pyridin-5-yl]-3-(trifluoromethyl)benzamide] it is 161 ± 13.1 nM.
